The values that follow come from patent US20170290821A1 (priority 2014, published 2017).

Structures can show the parent of a compound that is named as a salt. Where two headings read alike, the source gives them in different places.

This assay deals with influenza virus A/WSN RG#1-1 strains. The assay can be described thus: microbe, parasite or virus in culture. The assay is classed as cell-based. The following applies: for IC50: unidentified influenza virus, WSN, read-out: IC50 (50% virus replication inhibitory concentration).

In the case of `COc1cc2ncnc(Nc3ccc(O)cc3)c2cc1OC` [Compound J20, 4-[(6,7-dimethoxy-4-quinazolinyl)amino]-phenol], for the setting “HEK293, 48 h”, the IC50 is 31.6 µM.

For `Cl.Cl.Fc1cc(-c2cccc3ncc(-c4cnn(C5CCNCC5)c4)nc23)cc(F)c1CN1CCOCC1` [Compound J21, 4-[[2,6-difluoro-4-[3-(1-piperidin-4-ylpyrazol-4-yl)quinoxalin-5-yl]phenyl]methyl]morpholine; dihydrochloride], the “IC50 (50% virus replication inhibitory concentration)” value was 3.50 log10, nM.

As for `O=C(Nc1c[nH]nc1-c1nc2cc(CN3CCOCC3)ccc2[nH]1)NC1CC1` [Compound J7, 1-cyclopropyl-3-(3-(5-(morpholinomethyl)-1H-benzo[d]imidazol-2-yl)-1H-pyrazol-4-yl) urea], the IC50 (A549, 48 h) was 3.16 µM.

With `CN1CCN(c2cccc(Nc3nc4c(-c5ccc(S(C)(=O)=O)cc5)cccn4n3)c2)CC1` [Compound J11], the “IC50 (50% virus replication inhibitory concentration)” value is recorded as 3.50 log10, nM.

`N#C/C(=C\c1ccc(O)c(O)c1)C(=O)NCc1ccccc1` [Compound J4, (E)-N-benzyl-2-cyano-3-(3,4-dihydroxyphenyl)acrylamide]: the IC50 (A549, 48 h) is 31.6 µM.

Take `O=C(Nc1nc2cccc(-c3ccc(CN4CCS(=O)(=O)CC4)cc3)n2n1)C1CC1` [Compound J19, N-[5-[4-[(1,1-dioxido-4-thiomorpholinyl)methyl]phenyl][1,2,4]triazolo[1,5-a]pyridin-2-yl]cyclopropanccarboxamidc]: the IC50 reads like this: (A549, 48 h) 31.6 µM; (HEK293, 48 h) 31.6 µM; (MDCK, 48 h) 31.6 µM.

As for `CC(C)N(CCC(=O)c1ccc2ccccc2c1)Cc1ccccc1` [Compound J15, 1-propanone, 3-[(1-methylethyl)(phenylmethyl)amino]-1-(2-naphthalenyl)-, hydrochloride (1:1)], the IC50 (HEK293, 48 h) is 0.316 µM.

For `CN1C/C=C/CCOc2cccc(c2)-c2ccnc(n2)Nc2cccc(c2)C1` [Compound J23, 20-oxa-5,7,14,27-tetraazatetracyclo[19.3.1.12,6.18, 12]heptacosa-1(25),2,4,6(27),8,10,12(26),16,21,23-decane,14-methyl-], the IC50 was 0.0316 µM (A549, 48 h); 0.0316 µM (HEK293, 48 h); 0.0316 µM (MDCK, 48 h).

With `CCC[C@H](NC(=O)/C(C#N)=C/c1cccc(Br)n1)c1ccccc1` [Compound J25, (2E)-3-(6-bromo-2-pyridinyl)-2-cyano-N-[1S-phenylbutyl]-2-propenamide], the “IC50 (50% virus replication inhibitory concentration)” value was 2.50 log10, nM.

For `Fc1cc(-c2cccc3ncc(-c4cnn(C5CCNCC5)c4)nc23)cc(F)c1CN1CCOCC1` [Compound J13, 8-(3,5-difluoro-4-(morpholinomethyl)phenyl)-2-(1-(piperidin-4-yl)-1H-pyrazol-4-yl)qui noxaline], the “IC50 (50% virus replication inhibitory concentration)” value was 3.17 log10, nM.

As to `N#CCNC(=O)c1ccc(-c2ccnc(Nc3ccc(N4CCOCC4)cc3)n2)cc1` [Compound J8, N-(cyanomethyl)-4-(2-(4-morpholinophenylamino)pyrimidin-4-yl)benzamide], under “HEK293, 48 h”, the IC50 is 31.6 µM.
